The conditions of assay [1]: single injection; cited from earlier work.
For assay [2], the system named is TBHP induced lipid peroxidation in Wistar rat liver microsomes. Kind of assay: TBARS assay: inhibition of TBHP induced microsomal lipid peroxidation. The assay is classed as biochemical. Particulars: microsomes pretreated 1 h, then TBHP 30 min; TRFRB expressed in μM of tocotrienols; read-out: IC50, concentration that reduced the amount of lipid peroxidation approximately 50%. How it is done:
The antioxidant activity of TRFRB was assessed measuring the ability to prevent microsomal lipid peroxidation. For this a TBARS assay was performed using a modified version of the original method described by Buege and Aust, Microsomal lipid peroxidation. Methods Enzymol 1978, 52, 302-310. Briefly, rat liver microsomes (BD Bioscience) were suspended in PBS in glass tubes at final concentration of 1 mg/mL. To this, increasing concentrations of TRFRB dissolved in DMSO were added. DMSO alone was used as control. The final DMSO percentage was kept under 0.1%. Microsomes were subsequently incubated with the test compounds at 37° C. for one hour in a shaking water bath (100 rpm). After one hour, freshly made tert-Butyl hydroperoxide (TBHP) solution was added to microsomes at a final concentration of 200 μM and incubation was continued for another 30 mins. The reaction was terminated by addition of 20% trichloroacetic acid and tubes were placed on ice for 15 mins. Equal volume of 0.67% thiobarbituric acid in 0.05N NaOH was added and the final mixture was heated at 95° C. for 45 mins to allow the color to develop. Finally, the tubes were cooled on ice and centrifuged at 1000 rpm for 20 mins and the supernatant was read at 532 nm. The percent TBARS was calculated using a standard curve obtained using malondialdehyde (MDA). […]

Assay [3] deals with H9c2 rat heart cardiomyocytes. The assay is described as follows: Cell morphology of cardiomyocytes after H2O2 damage. The assay is classed as cell-based. Particulars: 5 μM pretreatment overnight; 100 and 200 μM H2O2 for 4 h. How it is done:
H9c2 rat heart cardiomyocytes were treated with either vehicle control (DMSO, 0.1% v/v), 5 μM delta-tocotrienol or 5 μM TRFRB overnight. Cells were then exposed to 100 or 200 μM H2O2 for 4 h. Morphological changes were recorded under an inverted microscope. Pictures were taken at 10× magnification. Scale bar represents 400 μm.
We then investigated whether TRFRB can protect the various cells types from different tissue origins against H2O2 or IR induced oxidative damage.

Assay [4] concerns HaCaT cells. Kind of assay: Mitochondrial bioenergetics (mitochondrial uncoupling) in irradiated keratinocytes. The conditions noted are these: 5 μM pretreatment 16 h prior to 8 Gy IR; 48 h following IR; normalized to sham irradiated control. It is filed as cell-based, human. The method, then:
In order to determine the radioprotective effects of TRFRB, human immortalized keratinocytes (HaCaT cells) were plated in 96 well Seahorse plates. The next day they were treated with either vehicle (DMSO, 0.1% v/v) or 5 μM of DT3 or 5 μM of TRFRB overnight. The Seahorse plates were either sham irradiated or irradiated with 8 Gy of γ-irradiation. Both plates were sequentially run in the XF96 extracellular analyzer as described above.
Secondly we utilized an immortalized human skin keratinocyte line (HaCaT cells) to evaluate the radioprotective effects of TRFRB. HaCaT cells were pretreated with DMSO vehicle or 5 μM of DT3 or TRFRB for 16 h prior to 8 Gy IR. Then the cellular bioenergetics and mitochondrial respiration in these cells were assayed at 48 h following IR exposure as described with H9c2 cells. The percent mitochondrial uncoupling is defined and calculated by determining the increase in the ratio of basal respiration to maximum respiration (OCR following FCCP treatment) and the data was normalized to the sham irradiated control group.

Assay [5] has as its system HaCaT cells. Kind of assay: In vitro scratch assay (keratinocyte migration) after 8 Gy IR. The conditions noted are these: 5 μM given 4 h after IR exposure. It is filed as cell-based, human. The method, then: Human immortalized keratinocytes (HaCaT cells) were plated in 12 well culture plates and irradiated with 8 Gy or sham irradiated 24 h after plating. The cells were given either vehicle (DMSO, 0.1% v/v) or 5 μM of DT3 or 5 μM of TRFRB 4 hours following radiation. Culture media were replaced again at 36 h following radiation. At the 72 h time point, a scratch was made using a sterile micropipette tip in each well. This created an open area into which the keratinocytes migrated. Two areas of the scratch margins were imaged daily until scratches were closed. The area of the scratch remaining was measured on the images at five points per field, with two fixed fields averaged using Cell Analyzer 1.0 (BWTech, Iowa City, Iowa). Measurements were stopped when cells no longer made positive progress towards the scratch origin. See Ross et al., Exp Dermatol 2011, 20, 58-63.
This protection in the increased survival fraction was not statistically significant compared to 8 Gy IR alone group (FIG. 7). An in vitro scratch assay was utilized to evaluate the protective efficacy of TRFRB for keratinocyte migration function when the cells were treated with TRFRB after IR exposure.

The subject of assay [6] is H9c2 rat heart cardiomyocytes. Kind of assay: Mitochondrial bioenergetics (oxygen consumption rate, XF96 analyzer) in H9c2 cells with or without H2O2. The assay is classed as cell-based. How it is done: Oxygen consumption rate (OCR) was measured at 37° C. using an XF96 extracellular analyzer (Seahorse Bioscience) as previously described Pathak et al., Antioxid Redox Signal 2014, 20, 1436-1446. H9c2 rat heart cardiomyocytes cells were plated in 96 well Seahorse plates. The next day they were treated with either vehicle (DMSO, 0.1% v/v) or 5 μM of DT3 or 5 μM of TRFRB overnight. The cells were then treated with 50 or 100 μM H2O2 for 4 h at 37° C. The media in the wells were changed to unbuffered DMEM supplemented with 4 mM […] and incubated in a non-CO2 incubator for 1 h at 37° C. Three baseline measurements were acquired before injection of mitochondrial inhibitors or uncouplers. Readings were taken after sequential addition of oligomycin (10 μM), carbonylcyanide 4-(trifluoromethoxy)phenylhydrazone (FCCP, 10 μM) and rotenone/antimycin A (10 μM). Oxygen consumption rates were calculated by the Seahorse XF-96 software and represent an average of 3 measurements on 8 different wells. The rate of measured oxygen consumption was reported as pmol O2 consumed per minute per 10,000 cells.
Therefore, the next experiment assessed the effects of TRFRB and pure DT3 on cellular bioenergetics and mitochondrial respiration in the absence of any cellular stress. Intracellular mitochondrial function was examined by sequentially adding inhibitors of oxidative phosphorylation. Initially we took 3 measurements to determine the “basal respiration” of the cells. By injecting an inhibitor of mitochondrial ATP synthase (oligomycin), a decrease in oxygen consumption rate (OCR) was obtained and this decrease in OCR is termed as “ATP linked respiration”. In order to determine the maximal respiration potential of the cells, FCCP, an uncoupler, was used. Immediately following FCCP injection, oxygen consumption increased and cells reached to their maximum respiration. Mitochondrial “reserve respiratory capacity” was calculated by subtracting […]. Overnight (16 h) treatment of both DT3 and TRFRB increased basal oxygen consumption rate (OCR) as well as maximum OCR in H9c2 rat heart cardiomyocytes (FIG. 4A). […] 100 μM H2O2 treatment for 4 h completely halted the cellular respiration (FIGS. 4B and C).

The values below come from US11116746B2, “Use of rice bran oil distillate extract for prevention and mitigation of the effects of radiation” (Tocol Pharmaceuticals, LLC, priority 2015, dated 2021).

Regarding `CC(C)=CCC/C(C)=C/CC/C(C)=C/CC[C@]1(C)CCc2cc(O)c(C)c(C)c2O1` [GT3, γ-tocotrienol], the “dose reduction factor (DRF) as a radioprotectant” value in assay [1] is given as 1.29. Also, in assay [2], the IC50 turned out to be 7 µM.
Turning to `CC(C)=CCC/C(C)=C/CC/C(C)=C/CC[C@]1(C)CCc2cc(O)cc(C)c2O1` [DT3, δ-tocotrienol], the “protection of cell morphology against H2O2 treatment” value in assay [3] is recorded as “significantly protected the morphology”. In assay [1], the “dose reduction factor (DRF) as a radiomitigator” value is 1.1 and the “dose reduction factor (DRF) as a radioprotectant” value is 1.27. In addition, the “degree of mitochondrial uncoupling” value in assay [4] is “this increase was reversed”. Further, the migration rates result in assay [5] was “partially restored”. For the same compound, the “mitochondrial respiration following H2O2 injury” value in assay [6] (5 μM for 16 h prior to 50 or 100 μM H2O2 for 4 h) is “complete protection and restored the mitochondrial respiration”. Further, in assay [6] (5 μM overnight (16 h), no cellular stress), the “basal oxygen consumption rate (OCR)” value is on record as “increased”. Besides, the “maximum OCR” value in assay [6] (5 μM overnight (16 h), no cellular stress, after FCCP) is recorded as “increased”. Further, the reserve respiratory capacity result in assay [6] (calculated from maximum and basal OCR) is “an increase in reserve respiratory capacity”.
